Results published in patent publication US10577333B2, “Tetrazole derivatives as cytochrome P450 inhibitors” (C26 Bioscience AB, priority 2016, dated 2020).

Columns and labels:
[1] = target: T1, CYP26B1 (Homo sapiens, UniProt Q9NR63); test: [3H] atRA catabolism in CYP26B1 transfected COS-1 cells, HPLC analysis; assay type: cell-based; parameters: expressed in transfected cells; host or cells: COS-1; settings: 1 or 10 μM for 1 h, then [3H] atRA for 2 h
T1 sequence (Q9NR63 1-512): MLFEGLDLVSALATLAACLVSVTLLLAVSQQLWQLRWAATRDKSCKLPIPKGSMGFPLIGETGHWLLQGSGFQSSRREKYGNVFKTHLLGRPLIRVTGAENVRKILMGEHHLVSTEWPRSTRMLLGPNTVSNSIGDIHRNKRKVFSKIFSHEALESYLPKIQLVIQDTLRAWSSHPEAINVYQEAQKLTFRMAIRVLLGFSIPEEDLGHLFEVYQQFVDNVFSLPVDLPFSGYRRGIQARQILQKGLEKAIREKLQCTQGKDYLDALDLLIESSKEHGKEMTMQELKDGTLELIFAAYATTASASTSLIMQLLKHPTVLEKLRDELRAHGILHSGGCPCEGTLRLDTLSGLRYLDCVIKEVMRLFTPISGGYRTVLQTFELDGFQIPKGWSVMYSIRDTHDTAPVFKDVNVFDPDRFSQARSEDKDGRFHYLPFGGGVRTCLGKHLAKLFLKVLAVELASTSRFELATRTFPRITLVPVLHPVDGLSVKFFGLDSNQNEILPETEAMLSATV
Method: (§1) FIG. 3 illustrates quantification of atRA levels by HPLC in human smooth muscle cells and transfected COS-1 cells: A) Human smooth muscle cells were treated with 1 or 10 μM of the new CYP26 inhibitor for 1 h followed by a 4 h [^3H] atRA incubation. B) COS-1 transfected by 1 μg/μL of CYP26B1 and incubated with 1 or 10 μM of test compound followed by a 2 h [^3H] atRA incubation. For all experiments n=3; *P<0.05, **P<0.01 and ***P<0.001.
To investigate the specificity of our candidate to inhibit CYP26B1-mediated catabolism of atRA, COS-1 cells were transfected with CYP26B1 or an empty vector (in which case no CYP26B1 can be produced). COS-1 was maintained in Dulbecco's Modified Eagle's Medium (DMEM; Life Technologies, Carsbad, Calif., USA) and transfection of COS-1 was performed in 12 well plates using 1 μg/μl of CYP26B1 and 2 μl of lipofectamin 2000 in 250 μl of Opti-MEM (Opti-MEM: Modified Eagle's Minimum Essential Media; Life Technologies, Carlsbad, Calif., USA). The mixture was incubated at room temperature for 20 minutes and added to the plate for 4 h followed by addition of growth medium for 24 h. The next day, the medium was replaced by fresh DMEM and treated by 1 or 10 μM of the compound according to Formula II for 1 h followed by exposure to 1 μCl/ml of [^3H] atRA for 2 h, and subsequent HPLC analysis.

[2] = target: T1, CYP26B1; test: [3H] atRA catabolism in human smooth muscle cells, HPLC analysis; assay type: cell-based; parameters: endogenous in cells; host or cells: human aortic smooth muscle cells (AOSMC); settings: AOSMCs, 1 or 10 μM for 1 h, then [3H] atRA for 4 h
Method: as §1
AOSMCs were seeded out in density of 2×10^5 in 6 well plates incubated with two different concentrations (1 and 10 μM) of compound according to Formula II for 1 h followed by exposure to 1 μCl/ml of [^3H] atRA for 4 h. Cells were thereafter washed using BSA 1 mg/ml of PBS followed by HPLC analysis.

[3] = target: T2, purified CYP26B1 (Homo sapiens, UniProt Q9NR63); test: Enzymatic assay on purified CYP26B1 with oxidoreductase and NADPH, [3H] atRA, HPLC; assay type: biochemical; settings: 5 μM, 5 nM CYP26B1, 50 nM [3H] atRA, 1 mM NADPH, 10 sec to 10 min
T2 construct: made in house
T2 sequence (Q9NR63 1-512): T1 sequence (Q9NR63 1-512)
Method: FIG. 4 is a graph showing results from an enzymatic assay carried out on purified CYP26B1, incubated with 5 or 25 μM of the test compound in the presence of oxidoreductase and NADPH, at different time points. The control experiment was performed without initiation with NADPH. For all experiments n=3.
To investigate the efficiency of the compound of Formula II in blocking CYP26B1, CYP26B1 was purified and subsequently incubated with 5 and 25 μM of compound of Formula II for different time points (10 s to 10 min). This experiment thus excludes any other possible metabolic route that potentially could have been present in the cellular experiments. Purified CYP26B1 was stored in buffer containing 50 mM K2HPO4, 0.5 mM EDTA and 20% of glycerol, pH 7.4 at −80° C. The assay was performed as follows: 5 nM of CYP26B1 and 10 nM oxidoreductase was preincubated. 5 or 25 μM of the compound of Formula II and 50 nM [^3H] atRA were added followed by addition of 1 mM NADPH in total volume of 100 μl of Kpi buffer and incubated for 10 sec to 10 min. The reaction was stopped by adding 100 μl absolute ethanol. The sample was subsequently extracted and analysed by HPLC. For control, experiments were performed as above but without initiation of the reaction by NADPH.

[4] = tested on: atRA responsive genes CYP26B1 and RARβ; test: QRT-PCR of atRA responsive genes CYP26B1 and RARβ mRNA in human aortic smooth muscle cells; assay type: cell-based; settings: AOSMCs
Method: FIG. 1 illustrates the induction of CYP26B1 and RARβ mRNA at different concentrations of test compound: A) CYP26 and B) RARβ in human smooth muscle cells treated with 0.001-10 μM of the test compound. For all experiments n=3; *P≤0.05, **P<0.01 and ***P<0.001.
FIG. 2 are diagrams of CYP26B1 and RARβ mRNA expression in human smooth muscle cells upon treatment with atRA and/or test compound: A) CYP26B1 and B) RARβ mRNA expression in human smooth muscle cells treated with either 1 μm of atRA, test compound or combination of both for 48 h. The experiment was performed in three independent runs; *P≤0.05, **P<0.01 and ***P<0.001.
Human aortic smooth muscle cells (AOSMCs) were treated with different concentrations of a compound of Formula II (0.001-10 μM; FIGS. 1A and B). AOSMCs were incubated with different concentration (0.001-10 μM) of compound according to Formula II, or DMSO as control, at 37 C for 24 h. Total RNA were isolated by using E.Z.N.A total RNA kit (VWR Stockholm Sweden) and cDNA synthesis was performed through high capacity reverse transcription kits (applied Biosystems, Foster City, Calif., USA) according to manufacturers instructions.
Next, human AOSMCs were treated with either 1 μM of atRA or a compound of Formula II alone, or a combination of both for 48 h. The purification and analysis procedures were as described above. […] The results strongly indicate that the compound of Formula II increases retinoid signalling.

[5] = 1 μM in combination with atRA, 48 h
[6] = 0.001-10 μM, 24 h, normalized to Cyclophilin A, vs DMSO control

degradation of atRA in the cells [2]: greatly reduces the degradation of atRA
RA degradation by purified CYP26B1 [3]: efficiently inhibited RA degradation
SMILES: Cn1nnnc1SCCC(=O)NCc1ccc(C(=O)O)cc1 [compound of Formula II]
levels of atRA [1]: significantly increased the levels of atRA
effect of atRA on induction of CYP26B1 mRNA [4, 5]: significantly increased the effects of atRA on the induction
effect of atRA on induction of RARβ mRNA [4, 5]: significantly increased the effects of atRA on the induction
expression of CYP26B1 mRNA [4, 6]: significantly induced in a dose-dependent manner
expression of RARβ mRNA [4, 6]: significantly induced in a dose-dependent manner
